Patent US7635714B2, “Methods of treating dyschezia” (priority 2002, dated 2009)

Columns and labels:
normal rabbits (Kbl:JW) = experiment: Acceleratory effects on defecation in normal rabbits (stool weight, water content of stools); assay type: in vivo, rabbit
Description: To study the difference of effects between GM-611 and a laxative, sennoside (sennoside solution (trade name), Taisho Pharm. Ind., Ltd.) was used as a laxative to compare with acceleratory effects of GM-611 on defecation. More specifically, normal rabbits were orally administered with GM-611 or sennoside and then measured for the weight and water content of stools. Normal rabbits (Kbl:JW), in groups of 13 to 15, were orally administered with vehicle (3 w/v % gum arabic suspension), GM-611 (1.25 mg/kg, 2.5 mg/kg, 5 mg/kg, 10 mg/kg), vehicle (purified water), or sennoside (12 mg/kg, 24 mg/kg, 48 mg/kg). The stool weight was then measured every 4 hours until 8 hours after administration. Also, their stools were collected, dried in a dry oven (at 120° C. for 24 hours or longer) and then the dry stool weight was measured to calculate the water content of stools (%) according to the following formula: ((wet stool weight [g]−dry stool weight [g]))/wet stool weight [g])×100.

[1] = compared with erythromycin; cited from earlier work
[2] = tested on: rabbits with morphine-induced defecation dysfunction; experiment: Improving effect on morphine-induced defecation dysfunction in rabbits (stool weight); assay type: in vivo, rabbit; conditions: morphine 1 mg/kg s.c.
Protocol: Effects on defecation dysfunction can be studied using an animal model with morphine-induced defecation dysfunction. To study the effect of GM-611 on defecation dysfunction, rabbits were subcutaneously administered with morphine (Anpec (trade name), Dainippon Pharmaceutical Co., Ltd.) to induce defecation dysfunction and then the stool weight was measured to evaluate the acceleratory effect of GM-611 on defecation in the model. Rabbits (Kbl:JW) were subcutaneously administered with vehicle (physiological saline) or morphine (1 mg/kg) and fed for 30 minutes (feeding stimulation), followed by oral administration of vehicle (3 w/v % gum arabic suspension) or GM-611 at a dose of 1.25 mg/kg, 2.5 mg/kg, 5 mg/kg, 10 mg/kg or 20 mg/kg. The stool weight for 2.5 hours after administration was measured (11 rabbits in each group) to examine the improving effect of GM-611 on morphine-induced defecation dysfunction.

healthy male volunteers = experiment: Acceleratory effect on defecation in healthy volunteers (Phase I, repeated oral administration); assay type: in vivo, human
Protocol: The acceleratory effect of GM-611 on defecation was studied by repeated oral administration of GM-611 in Phase I trials. Healthy male volunteers, in groups of 6, were orally administered for 10 days with placebo or GM-611 (5 mg, 10 mg, 20 mg) on a three-times-a-day basis together with 150 mL water at 30 minutes before each meal, provided that the volunteers were administered once before breakfast on the first and tenth days. The volunteers were then monitored for their defecation during the period of administration. The acceleratory effect on defecation was assessed by the daily frequency of defecation, the number of days that at least one defecation was observed (the number of defecation days), and stool condition (watery diarrhea, muddy diarrhea, muddy soft stool, formed soft stool, normal stool, hard stool, very hard stool). It should be noted that in this test, the subjects were allocated at random to each test group and tested in a double-blind manner.

normal dogs (beagle) = experiment: Acceleratory effect on defecation in normal dogs (time until the first defecation); assay type: in vivo, dog
Protocol: In addition to the studies in rabbits, the acceleratory effect of GM-611 on defecation was also studied in normal dogs. Five beagle dogs were each catheterized to insert an intragastric catheter (Chugai Pharmaceutical Co., Ltd., 8.3-9.9 kg, 2 males and 3 females). Each dog was fed with pellets (CD-5 (CLEA Japan, Inc.), about 250 g) at 9:00 a.m. and then monitored for its defecation immediately after feeding. One hour after feeding, the animals […] defecation within 1 hour were intragastrically administered via the catheter with vehicle (3 w/v % gum arabic suspension) or GM-611 (0.3 mg/kg, 1 mg/kg, 3 mg/kg) and then measured for the time until the first defecation after administration.

CC[C@H]1OC(=O)[C@H](C)[C@@H](O[C@H]2C[C@@](C)(OC)[C@@H](O)[C@H](C)O2)[C@H](C)[C@@H](O[C@@H]2O[C@H](C)C[C@H](N(C)C(C)C)[C@H]2O)[C@@]2(C)CC(C)=C(O2)[C@H](C)C(=O)[C@]1(C)OC.CC[C@H]1OC(=O)[C@H](C)[C@@H](O[C@H]2C[C@@](C)(OC)[C@@H](O)[C@H](C)O2)[C@H](C)[C@@H](O[C@@H]2O[C@H](C)C[C@H](N(C)C(C)C)[C@H]2O)[C@@]2(C)CC(C)=C(O2)[C@H](C)C(=O)[C@]1(C)OC.O=C(O)/C=C/C(=O)O [GM-611, erythromycin, 8,9-didehydro-N-demethyl-9-deoxo-6,11-dideoxy-6,9-epoxy-12-O-methyl N-(1-methylethyl)-11-oxo-, (2E)-2-butenedioate (2:1)]
water content of stool (normal rabbits (Kbl:JW); oral 1.25-10 mg/kg GM-611): no change | stool weight (normal rabbits (Kbl:JW); oral 1.25-10 mg/kg, 0 to 4 hours after administration, vs vehicle): dose-dependently increased | antibacterial action [1]: weaker antibacterial action than erythromycin | stool weight at the maximum dose ([2]; GM-611 20 mg/kg oral, 2.5 hours): reached the same level as observed in the morphine-untreated group | morphine-induced defecation dysfunction (stool weight for 2.5 hours after administration) ([2]; feeding stimulation, oral GM-611 1.25-20 mg/kg): dose-dependently improved | average number of defecation days (healthy male volunteers; healthy male volunteers, 5, 10, 20 mg three times a day oral for 10 days, averaged over all GM-611 groups, placebo 6.0): 8.2 | average daily frequency of defecation (healthy male volunteers; healthy male volunteers, 5, 10, 20 mg three times a day oral for 10 days, placebo 0.7): 1.0 | stool condition (healthy male volunteers; healthy male volunteers, GM-611-treated groups vs placebo-treated group): no change | stool condition (normal dogs (beagle); at first defecation after administration): not diarrhea | time until the first defecation after administration (normal dogs (beagle); intragastric 0.3, 1, 3 mg/kg, 1 hour after feeding): dose-dependently decreased

sennoside [reference compound]
water content of stools (normal rabbits (Kbl:JW); oral sennoside 12-48 mg/kg): increased dose-dependently | stool weight (normal rabbits (Kbl:JW); oral sennoside 12-48 mg/kg, significant during 4 to 8 hours after administration (delayed)): dose-dependently increased

CN1CC[C@]23c4c5ccc(O)c4O[C@H]2[C@@H](O)C=C[C@H]3[C@H]1C5 [morphine, reference compound]
defecation enhanced by feeding stimulation (stool weight) ([2]; vs physiological saline): significantly inhibited
